{
  "source": "patent US20100227923A1",
  "about": "“PREVENTIVE/REMEDY FOR URINARY CALCULOSIS” (GODO SHUSEI CO., LTD., priority 2006, published 2010)",
  "key": {"[1]": {"details": "Non-Patent Documents 4 to 6; cited from earlier work"}, "[2]": {"details": "Non-Patent Documents 4 to 6; cited from earlier work", "remark": "listed apart in the source"}, "mice": {"tested_on": "mice", "experiment": "Single-dose peroral safety experiment of mice (LD50)", "format": "in vivo"}, "[3]": {"experiment": "Percent urine excretion (24 hours) of rats after intravenous administration", "format": "in vivo, Wistar rats", "details": "for Percent urine excretion (24 hours): rats, 0.5 mmol/kg i.v., av. ± standard error", "experimental": "(§1) The percent urine excretion (24 hours) was determined in the following manner. To each of the 5- to 6-week-old male Wistar rats which had been fasted overnight, sodium L-arabonate (0.5 mmol/kg) was administered through the tail vein. The rats were placed in a metabolic cage where urine was collected for 24 hours. After removal of protein from the blood samples and urine samples, the blood L-arabonic acid level of each sample was determined through HPLC. Instead of L-arabonic acid, sodium D-gluconate was administered to the rats of the control group. The blood sodium D-gluconate level was determined by means of an F-kit (product of Roche Diagnostic)."}, "[4]": {"experiment": "Blood level of rats after intravenous administration", "format": "in vivo, Wistar rats", "experimental": "After fasting overnight, 10- to 11-week old Wistar male rats were anesthetized with Nembutal, and sodium L-arabonate (0.5 mmol/kg) was administered through the femoral vein of each rat. Blood was sampled through the carotid artery as time elapsed, whereby the L-arabonic acid level was determined. Blood collection was performed by means of a heparin-treated capillary before administration and 5 min, 15 min, 30 min, and 1 hour after administration.\nas §1"}},
  "note": "Like-named read-outs stand apart in the source and are kept apart here.",
  "data": [
    {"smiles": "O=C(O)[C@H](O)[C@@H](O)[C@H](O)[C@H](O)CO", "note": "[D-gluconic acid]", "values": [
      {"measurement": "Dissolving of calcium phosphate calculi and magnesium phosphate calculi", "setting": "[1]", "value": "dissolve"},
      {"measurement": "Dissolving of calcium oxalate calculi", "setting": "[2]", "value": "not to dissolve"}
    ]},
    {"smiles": "O=C(O)[C@H](O)[C@@H](O)[C@@H](O)CO", "note": "[L-Arabonic acid, L-arabonic acid]", "values": [
      {"measurement": "LD50", "setting": "mice", "value": "about 10 g/kg"},
      {"measurement": "Metabolism in the body", "setting": "[3]; rat, in vivo", "value": "not metabolized in the body and is immediately excreted to urine"},
      {"measurement": "Portion of the absorbed L-arabonic acid excreted to urine", "setting": "[3]; rat, in vivo", "value": "~100", "unit": "%"}
    ]},
    {"smiles": "O=C([O-])[C@H](O)[C@@H](O)[C@H](O)[C@H](O)CO.[Na+]", "note": "[Sodium D-gluconate, sodium D-gluconate]", "values": [
      {"measurement": "Blood D-gluconic acid level", "setting": "[4]; rats, 0.5 mmol/kg i.v.", "value": "considerably low"},
      {"measurement": "Metabolism in the body", "setting": "[3]", "value": "a large portion thereof is thought to be metabolized and consumed in the body"},
      {"measurement": "Percent urine excretion (24 hours)", "setting": "[3]", "value": "9.8 ± 9.76", "unit": "%"},
      {"measurement": "Percent urine excretion (24 hours)", "setting": "[3]; listed as sodium D-gluconate", "value": "about 10%"}
    ]},
    {"smiles": "O=C([O-])[C@H](O)[C@@H](O)[C@@H](O)CO.[Na+]", "note": "[Sodium L-arabonate, sodium L-arabonate]", "values": [
      {"measurement": "Time at which blood level decreased to about the half value", "setting": "[4]; rat, in vivo, iv", "value": 22, "unit": "min"}
    ]}
  ]
}
